Experimental data reported in ChEMBL document CHEMBL4346735, “Discovery and pharmacological evaluation of indole derivatives as potent and selective RORγt inverse agonist for multiple autoimmune conditions” (Bioorg Med Chem Lett, 2019).
Activity calls are given as the source filed them. The calls are words filed in the database; no cut-off is given here.

Columns and labels:
Mus musculus [1] = assay: Protection against imiquimod-induced skin inflammation in BALB/c mouse psoriasis model assessed as decrease in ear thickness administered topically at 25 mg qd treated for 1 hr before IMQ application measured at day 5; type: functional, organism-based
Mus musculus [2] = assay: Protection against imiquimod-induced skin inflammation in BALB/c mouse psoriasis model assessed as decrease in scaling administered topically at 25 mg qd treated for 1 hr before IMQ application measured at day 5; type: functional, organism-based
[3] = target: T1, Nuclear receptor ROR-gamma (Homo sapiens, UniProt P51449); assay: Inverse agonist activity at GST-tagged RORgammat LBD (unknown origin) using fluorescein-D22 co-activator peptide as substrate incubated for 1 hr by TR-FRET assay
T1 sequence (P51449 whole entry): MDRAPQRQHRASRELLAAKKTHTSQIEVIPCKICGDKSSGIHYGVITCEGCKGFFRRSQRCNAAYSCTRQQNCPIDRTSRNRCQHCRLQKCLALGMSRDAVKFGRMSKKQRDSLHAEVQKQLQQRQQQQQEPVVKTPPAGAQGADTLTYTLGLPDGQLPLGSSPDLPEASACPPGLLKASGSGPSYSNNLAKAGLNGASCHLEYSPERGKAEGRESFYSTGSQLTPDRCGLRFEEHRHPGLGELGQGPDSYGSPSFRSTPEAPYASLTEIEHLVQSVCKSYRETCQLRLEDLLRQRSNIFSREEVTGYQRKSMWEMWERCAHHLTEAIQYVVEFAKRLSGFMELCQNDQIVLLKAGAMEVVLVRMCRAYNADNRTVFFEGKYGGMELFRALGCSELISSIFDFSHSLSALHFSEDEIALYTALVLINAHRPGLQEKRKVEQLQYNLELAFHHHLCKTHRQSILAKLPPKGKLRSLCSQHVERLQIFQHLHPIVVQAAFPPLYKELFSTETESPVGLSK

[4] = target: T1, Nuclear receptor ROR-gamma; assay: Transactivation of recombinant GAL4-DBD fused RORgammat LBD (unknown origin) expressed in HEK293T cells incubated for 18 to 24 hrs by dual-Glo luciferase assay; type: cell-based
[5] = Drug metabolism in mouse liver microsomes assessed as oxidation metabolic rate at 1 uM preincubated for 5 mins followed by NADPH addition after 30 mins by LC-MS/MS analysis; type: ADME, Microsome; conditions: 0.5 h
[6] = Drug metabolism in rat liver microsomes assessed as oxidation metabolic rate at 1 uM preincubated for 5 mins followed by NADPH addition after 30 mins by LC-MS/MS analysis; type: ADME, Microsome; conditions: 0.5 h
[7] = Drug metabolism in human pooled liver microsomes assessed as oxidation metabolic rate at 1 uM preincubated for 5 mins followed by NADPH addition after 30 mins by LC-MS/MS analysis; type: ADME, Microsome; conditions: 0.5 h
[8] = AUC (0 to t) in Balb/c mouse at 3 mg/kg, iv administered as single dose by LC-MS/MS analysis; type: ADME, organism-based; conditions: in vivo
[9] = Clearance in Balb/c mouse at 3 mg/kg, iv administered as single dose by LC-MS/MS analysis; type: ADME, organism-based; conditions: in vivo
[10] = Half life in Balb/c mouse at 3 mg/kg, iv administered as single dose by LC-MS/MS analysis; type: ADME, organism-based; conditions: in vivo
[11] = Oral bioavailability in Balb/c mouse at 10 mg/kg administered via gavage by LC-MS/MS analysis; type: ADME, organism-based; conditions: in vivo
[12] = Metabolic stability in rat hepatocytes assessed as parent compound remaining after 30 mins; type: ADME, cell-based, Hepatocyte; conditions: read-out: Stability
Mus musculus [13] = assay: Immunosuppressive activity in MOG (35 to 55 residues)/pertussis toxin-induced experimental allergic encephalomyelitis C57BL/6J mouse model assessed as reduction in disease severity score at 15 mg/kg, po bid measured at day 23 relative to dexamethasone; type: functional; conditions: 552 h
[14] = target: T2, Nuclear receptor ROR-gamma (Mus musculus) (UniProt P51450); assay: Transrepression of RORgammat in Balb/c mouse splenocytes assessed as inhibition of anti-CD3/anti-CD28 stimulated IL-17 gene expression at 0.3 uM measured after 24 hrs in presence of anti-CD3/anti-CD28; type: cell-based
T2 sequence (whole entry): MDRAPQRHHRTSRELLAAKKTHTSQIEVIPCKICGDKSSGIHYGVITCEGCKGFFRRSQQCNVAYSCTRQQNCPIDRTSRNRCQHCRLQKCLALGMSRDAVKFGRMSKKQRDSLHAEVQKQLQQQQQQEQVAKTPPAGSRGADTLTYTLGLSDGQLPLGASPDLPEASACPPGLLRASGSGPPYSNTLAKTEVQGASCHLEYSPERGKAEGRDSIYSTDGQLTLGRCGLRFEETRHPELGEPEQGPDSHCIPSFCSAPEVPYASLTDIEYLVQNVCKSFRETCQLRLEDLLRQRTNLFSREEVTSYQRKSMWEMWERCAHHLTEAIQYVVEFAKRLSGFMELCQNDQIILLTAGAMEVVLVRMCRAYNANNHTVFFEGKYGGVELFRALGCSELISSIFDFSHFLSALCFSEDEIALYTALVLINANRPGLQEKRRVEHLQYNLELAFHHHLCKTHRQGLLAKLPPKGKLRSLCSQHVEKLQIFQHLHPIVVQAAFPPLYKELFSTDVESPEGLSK

[15] = target: T2, Nuclear receptor ROR-gamma (Mus musculus); assay: Transrepression of RORgammat in Balb/c mouse splenocytes assessed as inhibition of anti-CD3/anti-CD28 stimulated IL-17 gene expression at 3 uM measured after 24 hrs in presence of anti-CD3/anti-CD28; type: cell-based
[16] = target: T2, Nuclear receptor ROR-gamma (Mus musculus); assay: Transrepression of RORgammat in Balb/c mouse splenocytes assessed as inhibition of anti-CD3/anti-CD28 stimulated IL-17 gene expression at 30 uM measured after 24 hrs in presence of anti-CD3/anti-CD28; type: cell-based
[17] = target: T3, Nuclear receptor ROR-gamma (Mus musculus, UniProt P51450); assay: Inverse agonist activity at RORgammat in mouse splenocytes derived naive T cells assessed as suppression of T cell differentiation to Th17 cells by measuring IL-17 secretion in presence of […]/anti-IFNgamma/TGFbeta/IL-6 for 6 days by ELISA; type: cell-based
T3 sequence (P51450 whole entry): T2 sequence (whole entry)

[18] = target: T4, Nuclear receptor ROR-gamma (Homo sapiens) (UniProt P51449); assay: Transactivation of recombinant GAL4-DBD fused RORgammat LBD (unknown origin) expressed in HEK293T cells at 10 uM incubated for 18 to 24 hrs by dual-Glo luciferase assay relative to control; type: cell-based
T4 sequence (whole entry): T1 sequence (P51449 whole entry)

[19] = Metabolic stability in mouse liver microsomes assessed as parent compound remaining at 1 uM preincubated for 5 mins followed by NADPH addition after 30 mins by LC-MS/MS analysis; type: ADME, Microsome; conditions: read-out: Stability
[20] = Metabolic stability in rat liver microsomes assessed as parent compound remaining at 1 uM preincubated for 5 mins followed by NADPH addition after 30 mins by LC-MS/MS analysis; type: ADME, Microsome; conditions: read-out: Stability
[21] = Metabolic stability in human liver microsomes assessed as parent compound remaining at 1 uM preincubated for 5 mins followed by NADPH addition after 30 mins by LC-MS/MS analysis; type: ADME, Microsome; conditions: read-out: Stability

With C[C@H]1C[C@H]2[C@@H]3CCC4=CC(=O)C=C[C@]4(C)[C@@]3(F)[C@@H](O)C[C@]2(C)[C@@]1(O)C(=O)CO the Activity (Mus musculus [1]) was “Active” and the Activity (Mus musculus [2]) was “Active”.
With O=C(O)c1ccc(-n2nc(C(=O)c3c(Cl)cccc3Cl)c3ccccc32)cc1 the IC50 [3] was 3.8 nM, the IC50 [4] was 29 nM and the Drug metabolism [5] was < 0.04 nmol/min/mg. It also gave a Drug metabolism [6] of 0.18 nmol/min/mg, a Drug metabolism [7] of 0.07 nmol/min/mg and an AUC(0-t) [8] of 5.9 µM·h. For the same molecule, the clearance [9] was 19.6 mL/min/kg, the half-life [10] was 1.4 h and the bioavailability [11] was 29%. The remaining at 0.5 h [12] was 17%.
In the case of C[S+](C)[O-] [DIMETHYL SULFOXIDE], the inhibition in vivo at 15 mg/kg (Mus musculus [13]) is reported as 15%.
For O=C(O)c1ccc(-c2nn(C(=O)c3c(Cl)cccc3Cl)c3ccccc23)cc1, the IC50 [3] was 2 nM, the IC50 [4] was 20 nM and the Drug metabolism [5] was < 0.04 nmol/min/mg. It also gave a Drug metabolism [6] of 0.19 nmol/min/mg, a Drug metabolism [7] of 0.04 nmol/min/mg and an AUC(0-t) [8] of 13.2 µM·h. It also gave a clearance [9] of 12.9 mL/min/kg, a half-life [10] of 1.12 h and a bioavailability [11] of 42%. For the same molecule, the inhibition [14] was 15%, the inhibition [15] was 48% and the inhibition [16] was 52%. It also gave an IC50 [17] of 43 nM.
Molecule O=C(O)c1ccc(-n2cc(C(=O)c3c(Cl)cccc3Cl)c3ncccc32)cc1 has an inhibition [18] of 3%, a remaining at 0.5 h, 1 µM [19] of 100% and a remaining at 0.5 h, 1 µM [20] of 96%. For the same molecule, the remaining at 0.5 h, 1 µM [21] was 94%.
